Test results from patent US12606541B2, “PPARg modulators and methods of use” (Eisai R&D Management Co., Ltd., priority 2020, dated 2026).

Key:
His6-TEV-PPARγ-(234-505) = biological target: T1, His6-TEV-PPARγ-(234-505) (Homo sapiens, UniProt P37231); assay: TR-FRET Assay to Measure Co-R Peptide Recruitment to PPARγ; assay type: biochemical; settings: Co-R peptide (SMRT-ID2) recruitment; top final concentration 20 μM; read-out: TR-FRET i-Ag; AC50
T1 construct: The His6-TEV-PPARγ-(234-505) protein for assay was expressed and purified; TEV cleavage site (N); made in house
T1 sequence (P37231 234-505): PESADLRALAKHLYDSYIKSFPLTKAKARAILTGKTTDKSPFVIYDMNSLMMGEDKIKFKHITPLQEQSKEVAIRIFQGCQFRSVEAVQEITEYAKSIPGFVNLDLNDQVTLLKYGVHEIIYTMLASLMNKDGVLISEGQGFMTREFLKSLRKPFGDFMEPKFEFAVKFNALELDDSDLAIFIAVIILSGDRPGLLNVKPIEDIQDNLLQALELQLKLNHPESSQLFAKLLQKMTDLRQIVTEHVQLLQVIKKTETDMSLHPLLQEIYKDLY
How it was run: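 Corepressor recruitment is measured by adding terbium-labeled anti-His antibody and FITC SMRT-ID2 peptide, at 5 and 200 nM final, after a 20-minute room-temperature protein–compound incubation. After one further hour, signal is converted to percent response between DMSO and 500 nM T0070907 wells.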

UM-UC-9 engineered cells = assay: Cell proliferation / short-term viability assay, CellTiter-Glo 144 h; assay type: cell-based, human; settings: Homo sapiens, UM-UC-9, 144 h, read-out: CTGlo 144 h UMUC9.5, G150
How it was run: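 Viability read by CellTiter-Glo 2.0 luminescence at day 7 versus DMSO-vehicle wells and a T0 plate measured on day 0. Cells: UM-UC-9 engineered assay-ready stocks, 500 cells/well in high-glucose DMEM with 10% FBS, 37° C, 5% CO2.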

| AC50 (His6-TEV-PPARγ-(234-505)) [nM] | SMILES | IC50 (UM-UC-9 engineered cells) [nM] |
| --- | --- | --- |
| 20.2 | COc1cc(-c2cc(C(=O)N3CCC(C(=O)NCc4ccc5[nH]nc(C)c5c4)CC3)n[nH]2)c(F)cn1 [Example 204, 1-[5-(5-fluoro-2-methoxypyridin-4-yl)-1H-pyrazole-3-carbonyl]-N-[(3-methyl-1H-indazol-5-yl)methyl]piperidine-4-carboxamide] | 83.3 |
| 912 | COc1cc(-c2cc(C(=O)N3CCC(C(=O)Nc4cnn(C(C)C)c4)CC3)n[nH]2)c(Cl)cn1 [Example 205, 1-(5-(5-chloro-2-methoxypyridin-4-yl)-1H-pyrazole-3-carbonyl)-N-(1-isopropyl-1H-pyrazol-4-yl)piperidine-4-carboxamide] | 3110 |
| 13.8 | COc1cc(-c2cc(C(=O)N3CCC(C(=O)NCc4ccc5c(ccn5C)c4)CC3)n[nH]2)c(Cl)cn1 [Example 206, 1-(5-(5-chloro-2-methoxypyridin-4-yl)-1H-pyrazole-3-carbonyl)-N-((1-methyl-1H-indol-5-yl)methyl)piperidine-4-carboxamide] | 86.6 |
| 34.7 | COc1cc(-c2cc(C(=O)N3CCC(C(=O)NC4COc5ccc(Cl)cc54)CC3)n[nH]2)c(Cl)cn1 (stereo not shown) [Example 208, N-(5-chloro-2,3-dihydrobenzofuran-3-yl)-1-(5-(5-chloro-2-methoxypyridin-4-yl)-1H-pyrazole-3-carbonyl)piperidine-4-carboxamide] | 290 |
| 319 | COc1cc(-c2cc(C(=O)N3CCC(C(=O)NCc4nccc(C(F)(F)F)n4)CC3)n[nH]2)c(Cl)cn1 [Example 209, 1-(5-(5-chloro-2-methoxypyridin-4-yl)-1H-pyrazole-3-carbonyl)-N-((4-(trifluoromethyl)pyrimidin-2-yl)methyl)piperidine-4-carboxamide] | 2370 |
| 259 | COc1cc(-c2cc(C(=O)N3CCC(C(=O)NCc4cn5c(C)cccc5n4)CC3)n[nH]2)c(Cl)cn1 [Example 210, 1-(5-(5-chloro-2-methoxypyridin-4-yl)-1H-pyrazole-3-carbonyl)-N-((5-methylimidazo[1,2-a]pyridin-2-yl)methyl)piperidine-4-carboxamide] | 1680 |
| 462 | COc1cc(-c2cc(C(=O)N3CCC(C(=O)NCc4ncc(C(F)(F)F)cn4)CC3)n[nH]2)c(Cl)cn1 [Example 211, 1-(5-(5-chloro-2-methoxypyridin-4-yl)-1H-pyrazole-3-carbonyl)-N-((5-(trifluoromethyl)pyrimidin-2-yl)methyl)piperidine-4-carboxamide] | 3260 |
| 79.2 | COc1cc(-c2cc(C(=O)N3CCC(C(=O)NCc4cc5cc[nH]c5cn4)CC3)n[nH]2)c(Cl)cn1 [Example 212, N-((1H-pyrrolo[2,3-c]pyridin-5-yl)methyl)-1-(5-(5-chloro-2-methoxypyridin-4-yl)-1H-pyrazole-3-carbonyl)piperidine-4-carboxamide] | 782 |
| 194 | COc1cc(-c2cc(C(=O)N3CCC(C(=O)NCc4cn5cccc(F)c5n4)CC3)n[nH]2)c(Cl)cn1 [Example 214, 1-(5-(5-chloro-2-methoxypyridin-4-yl)-1H-pyrazole-3-carbonyl)-N-((8-fluoroimidazo[1,2-a]pyridin-2-yl)methyl)piperidine-4-carboxamide] | 1590 |
| 265 | COc1cc(-c2cc(C(=O)N3CCC(C(=O)NCc4ccc5[nH]c(C)nc5c4)CC3)n[nH]2)c(Cl)cn1 [Example 215, 1-(5-(5-chloro-2-methoxypyridin-4-yl)-1H-pyrazole-3-carbonyl)-N-((2-methyl-1H-benzo[d]imidazol-5-yl)methyl)piperidine-4-carboxamide] | > 5000 |
| 697 | COc1cc(-c2cc(C(=O)N3CCC(C(=O)NCC4(C)OCCCO4)CC3)n[nH]2)c(Cl)cn1 [Example 216, 1-(5-(5-chloro-2-methoxypyridin-4-yl)-1H-pyrazole-3-carbonyl)-N-((2-methyl-1,3-dioxan-2-yl)methyl)piperidine-, 1-carboxamide] | 3100 |
| 309 | COc1cc(-c2cc(C(=O)N3CCC(C(=O)NCc4cn5cc(C)ccc5n4)CC3)n[nH]2)c(Cl)cn1 [Example 217, 1-(5-(5-chloro-2-methoxypyridin-4-yl)-1H-pyrazole-3-carbonyl)-N-((6-methylimidazo[1,2-a]pyridin-2-yl)methyl)piperidine-4-carboxamide] | 3630 |
| 13.8 | COc1cc(-c2cc(C(=O)N3CCC(C(=O)NCc4nn(C)c5ccccc45)CC3)n[nH]2)c(Cl)cn1 [Example 218, 1-(5-(5-chloro-2-methoxypyridin-4-yl)-1H-pyrazole-3-carbonyl)-N-((1-methyl-1H-indazol-3-yl)methyl)piperidine-4-carboxamide] | 138 |
| 94.5 | COc1cc(-c2cc(C(=O)N3CCC(C(=O)NCc4cn5cc(Cl)ccc5n4)CC3)n[nH]2)c(Cl)cn1 [Example 219, 1-(5-(5-chloro-2-methoxypyridin-4-yl)-1H-pyrazole-3-carbonyl)-N-((6-chloroimidazo[1,2-a]pyridin-2-yl)methyl)piperidine-4-carboxamide] | 1610 |
| 279 | COc1cc(-c2cc(C(=O)N3CCC(C(=O)NCc4ncoc4C(F)(F)F)CC3)n[nH]2)c(Cl)cn1 [Example 221, 1-(5-(5-chloro-2-methoxypyridin-4-yl)-1H-pyrazole-3-carbonyl)-N-((5-(trifluoromethyl)oxazol-4-yl)methyl)piperidine-4-carboxamide] | 1730 |
| 628 | COc1cc(-c2cc(C(=O)N3CCC(C(=O)NCc4ccc5c(c4)ncn5C)CC3)n[nH]2)c(Cl)cn1 [Example 223, 1-(5-(5-chloro-2-methoxypyridin-4-yl)-1H-pyrazole-3-carbonyl)-N-((1-methyl-1H-benzo[d]imidazol-5-yl)methyl)piperidine-4-carboxamide] | > 10000 |
| 327 | COc1cc(-c2cc(C(=O)N3CCC(C(=O)NCc4cc(C(F)F)on4)CC3)n[nH]2)c(Cl)cn1 [Example 225, 1-(5-(5-chloro-2-methoxypyridin-4-yl)-1H-pyrazole-3-carbonyl)-N-((5-(difluoromethyl)isoxazol-3-yl)methyl)piperidine-4-carboxamide] | 1720 |
| 42.8 | COc1cc(-c2cc(C(=O)N3CCC(C(=O)NCc4ccc5cc[nH]c5n4)CC3)n[nH]2)c(Cl)cn1 [Example 226, N-((1H-pyrrolo[2,3-b]pyridin-6-yl)methyl)-1-(5-(5-chloro-2-methoxypyridin-4-yl)-1H-pyrazole-3-carbonyl)piperidine-4-carboxamide] | 427 |
| 490 | COc1cc(-c2cc(C(=O)N3CCC(C(=O)NCc4ccc5oc(=O)n(C)c5c4)CC3)n[nH]2)c(Cl)cn1 [Example 228, 1-(5-(5-chloro-2-methoxypyridin-4-yl)-1H-pyrazole-3-carbonyl)-N-((3-methyl-2-oxo-2,3-dihydrobenzo[d]oxazol-5-yl)methyl)piperidine-4-carboxamide] | > 10000 |
| 70.6 | COc1cc(-c2cc(C(=O)N3CCC(C(=O)NCc4ccc5cnn(C)c5c4)CC3)n[nH]2)c(Cl)cn1 [Example 229, 1-(5-(5-chloro-2-methoxypyridin-4-yl)-1H-pyrazole-3-carbonyl)-N-((1-methyl-1H-indazol-6-yl)methyl)piperidine-4-carboxamide] | 614 |
